# Assay results: US20240286998A1, “F[…], ANALOGUES THEREOF, AND METHODS USING SAME” (Saint Joseph's University, priority 2021, published 2024)
# Counter-ions that a name gives are not always drawn.
# Molecular target: Serotonin 5-HT2A (human) (Homo sapiens (Human), UniProt P28223)
# Test: 5-HT2A receptor binding, [3H]-ketanserin competition in membrane fractions
# Settings: 1 nM [3H]-ketanserin, Cheng-Prusoff, N=1-3
row,Compound,5-HT2A pKi ± SEM
1,"CCN(CCc1c[nH]c2ccc(F)cc12)C(C)C [Example 1, N-ethyl-N-(2-(5-fluoro-1H-indol-3-yl)ethyl)propan-2-amine]",5.95 ± 0.07
2,"CN1CCC(c2c[nH]c3ccc(F)cc23)C1 (centres unmarked) [compound 15, 5-fluoro-3-(1-methylpyrrolidin-3-yl)-1H-indole]",6.98
3,"CN1CC(c2c[nH]c3ccc(F)cc23)C1 [compound 29, 5-fluoro-3-(1-methylazetidin-3-yl)-1H-indole]",6.30
4,"CN(CCc1c[nH]c2ccc(F)cc12)C1CCC1 [compound 51, N-(2-(5-fluoro-1H-indol-3-yl)ethyl)-N-methylcyclobutanamine]",6.80 ± 0.02
5,"CCN(C)CCc1c[nH]c2c(F)c(F)c(F)cc12 [compound 164, N-ethyl-N-methyl-2-(5,6,7-trifluoro-1H-indol-3-yl)ethan-1-amine]",6.90 ± 0.13
6,"CC(C)N(CCc1c[nH]c2ccc(F)cc12)C1CC1 [compound 168, N-(2-(5-fluoro-1H-indol-3-yl)ethyl)-N-isopropylcyclopropanamine]",6.18

# Molecular target: 5-HT2A (Homo sapiens (Human), UniProt P28223)
# Test: 5-HT2A Gq-mediated calcium flux functional assay
# Type: cell-based
# Settings: not given
row,Compound,EC50 [nM]
1,"CCN(CCc1c[nH]c2ccc(F)cc12)C(C)C [Example 1, N-ethyl-N-(2-(5-fluoro-1H-indol-3-yl)ethyl)propan-2-amine]",1.35
2,"CCN(C)CCc1c[nH]c2c(F)c(F)c(F)cc12 [compound 164, N-ethyl-N-methyl-2-(5,6,7-trifluoro-1H-indol-3-yl)ethan-1-amine]",6.46

# Same assay, conditions: IA = Inactive; N=1-3
row,Compound,5-HT2A-Ca2+ FLUX Emax (% 5-HT)
1,"CCN(CCc1c[nH]c2ccc(F)cc12)C(C)C [Example 1, N-ethyl-N-(2-(5-fluoro-1H-indol-3-yl)ethyl)propan-2-amine]",102.6 ± 0.8
2,"CCCN(CC)CC(=O)c1c[nH]c2ccc(F)cc12 [compound 24, 2-(ethyl(propyl)amino)-1-(5-fluoro-1H-indol-3-yl)ethan-1-one]",81.0 ± 2.4
3,"CCN(C)CCc1c[nH]c2c(F)c(F)c(F)cc12 [compound 164, N-ethyl-N-methyl-2-(5,6,7-trifluoro-1H-indol-3-yl)ethan-1-amine]",76.1 ± 1.1

# Same assay, conditions: IA = Inactive; N=1-3; read-out: 5-HT2A-Ca2+ FLUX pEC50 (converted)
row,Compound,EC50 [nM]
1,"CCCN(CC)CC(=O)c1c[nH]c2ccc(F)cc12 [compound 24, 2-(ethyl(propyl)amino)-1-(5-fluoro-1H-indol-3-yl)ethan-1-one]",1410

# Molecular target: 5-HT2B (Homo sapiens (Human), UniProt P41595)
# Sequence (P41595 whole entry): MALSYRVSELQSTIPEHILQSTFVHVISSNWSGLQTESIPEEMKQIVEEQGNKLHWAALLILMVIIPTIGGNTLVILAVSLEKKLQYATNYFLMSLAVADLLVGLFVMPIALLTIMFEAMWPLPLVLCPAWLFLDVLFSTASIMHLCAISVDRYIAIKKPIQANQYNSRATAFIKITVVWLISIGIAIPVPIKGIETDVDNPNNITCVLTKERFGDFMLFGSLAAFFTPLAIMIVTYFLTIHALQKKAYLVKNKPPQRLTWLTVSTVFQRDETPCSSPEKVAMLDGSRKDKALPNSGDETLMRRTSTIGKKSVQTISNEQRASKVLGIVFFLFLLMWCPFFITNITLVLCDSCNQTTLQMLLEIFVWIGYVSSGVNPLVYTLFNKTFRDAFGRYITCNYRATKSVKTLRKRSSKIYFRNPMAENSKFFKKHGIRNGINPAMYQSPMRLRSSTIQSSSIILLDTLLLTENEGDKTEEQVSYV
# Test: 5-HT2B Gq-mediated calcium flux functional assay
# Type: cell-based
# Settings: not given
row,Compound,EC50 [nM]
1,"CCN(CCc1c[nH]c2ccc(F)cc12)C(C)C [Example 1, N-ethyl-N-(2-(5-fluoro-1H-indol-3-yl)ethyl)propan-2-amine]",1.32
2,"CCN(C)CCc1c[nH]c2c(F)c(F)c(F)cc12 [compound 164, N-ethyl-N-methyl-2-(5,6,7-trifluoro-1H-indol-3-yl)ethan-1-amine]",6.17

# Same assay, conditions: IA = Inactive; N=1-3
row,Compound,5-HT2B-Ca2+ FLUX Emax (% 5-HT)
1,"CCN(CCc1c[nH]c2ccc(F)cc12)C(C)C [Example 1, N-ethyl-N-(2-(5-fluoro-1H-indol-3-yl)ethyl)propan-2-amine]",100.0 ± 0.6
2,"CCN(C)CCc1c[nH]c2c(F)c(F)c(F)cc12 [compound 164, N-ethyl-N-methyl-2-(5,6,7-trifluoro-1H-indol-3-yl)ethan-1-amine]",33.2 ± 0.9

# Molecular target: 5-HT2C (Homo sapiens (Human), UniProt P28335)
# Sequence (P28335 whole entry, looked up): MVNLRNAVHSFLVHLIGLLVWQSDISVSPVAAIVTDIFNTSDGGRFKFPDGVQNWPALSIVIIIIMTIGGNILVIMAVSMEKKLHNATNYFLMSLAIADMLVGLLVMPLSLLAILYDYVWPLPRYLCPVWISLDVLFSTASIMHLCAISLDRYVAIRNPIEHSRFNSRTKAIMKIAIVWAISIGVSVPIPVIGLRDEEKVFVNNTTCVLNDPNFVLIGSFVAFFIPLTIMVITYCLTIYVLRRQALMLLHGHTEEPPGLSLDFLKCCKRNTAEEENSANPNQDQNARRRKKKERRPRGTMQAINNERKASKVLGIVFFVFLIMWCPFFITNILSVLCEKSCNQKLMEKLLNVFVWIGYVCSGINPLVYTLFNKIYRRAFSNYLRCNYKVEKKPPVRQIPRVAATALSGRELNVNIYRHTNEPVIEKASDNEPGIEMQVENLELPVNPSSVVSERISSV
# Test: 5-HT2C Gq-mediated calcium flux functional assay
# Type: cell-based
# Settings: not given
row,Compound,EC50 [nM]
1,"CCN(CCc1c[nH]c2ccc(F)cc12)C(C)C [Example 1, N-ethyl-N-(2-(5-fluoro-1H-indol-3-yl)ethyl)propan-2-amine]",6.61
2,"CCN(C)CCc1c[nH]c2c(F)c(F)c(F)cc12 [compound 164, N-ethyl-N-methyl-2-(5,6,7-trifluoro-1H-indol-3-yl)ethan-1-amine]",18.6

# Same assay, conditions: IA = Inactive; N=1-3
row,Compound,5-HT2C-Ca2+ FLUX Emax (% 5-HT)
1,"CCN(CCc1c[nH]c2ccc(F)cc12)C(C)C [Example 1, N-ethyl-N-(2-(5-fluoro-1H-indol-3-yl)ethyl)propan-2-amine]",107.6 ± 2.3
2,"CN1CC(c2c[nH]c3ccc(F)cc23)C1 [compound 29, 5-fluoro-3-(1-methylazetidin-3-yl)-1H-indole]",28.5 ± 0.8
3,"CCN(C)CCc1c[nH]c2c(F)c(F)c(F)cc12 [compound 164, N-ethyl-N-methyl-2-(5,6,7-trifluoro-1H-indol-3-yl)ethan-1-amine]",89.3 ± 1.3

# Same assay, conditions: IA = Inactive; N=1-3; read-out: 5-HT2C-Ca2+ FLUX pEC50 (converted)
row,Compound,EC50 [nM]
1,"CN1CC(c2c[nH]c3ccc(F)cc23)C1 [compound 29, 5-fluoro-3-(1-methylazetidin-3-yl)-1H-indole]",49

# Molecular target: 5-HT1A (Homo sapiens (Human), UniProt P08908)
# Test: 5-HT1A Gi/o-mediated cAMP inhibition, GloSensor assay
# Type: cell-based
# Settings: not given
row,Compound,EC50 [nM]
1,"CCN(CCc1c[nH]c2ccc(F)cc12)C(C)C [Example 1, N-ethyl-N-(2-(5-fluoro-1H-indol-3-yl)ethyl)propan-2-amine]",589
2,"CCCN(CC)CC(=O)c1c[nH]c2ccc(F)cc12 [compound 24, 2-(ethyl(propyl)amino)-1-(5-fluoro-1H-indol-3-yl)ethan-1-one]",0.49
3,"CN1CC(c2c[nH]c3ccc(F)cc23)C1 [compound 29, 5-fluoro-3-(1-methylazetidin-3-yl)-1H-indole]",851

# Same assay, conditions: cAMP inhibition, 0.2 μM isoproterenol; IA = Inactive
row,Compound,5-HT1A-cAMP Emax (% 5-HT)
1,"CCN(CCc1c[nH]c2ccc(F)cc12)C(C)C [Example 1, N-ethyl-N-(2-(5-fluoro-1H-indol-3-yl)ethyl)propan-2-amine]",86.4 ± 2.6
2,"CCCN(CC)CC(=O)c1c[nH]c2ccc(F)cc12 [compound 24, 2-(ethyl(propyl)amino)-1-(5-fluoro-1H-indol-3-yl)ethan-1-one]",20.5 ± 1.4
3,"CN1CC(c2c[nH]c3ccc(F)cc23)C1 [compound 29, 5-fluoro-3-(1-methylazetidin-3-yl)-1H-indole]",64.0 ± 3.5

# System: not given
# Test: not given
# Settings: not given
row,Compound,melting point [°C]
1,"CC(C)N(CCc1c[nH]c2ccc(F)cc12)C1CCC1 (as salt: hydrochloride) [compound 40, N-(2-(5-fluoro-1H-indol-3-yl)ethyl)-N-isopropylcyclobutanamine]",191.6 to 193
2,"CCN(C)CCc1c[nH]c2c(F)cc(F)cc12 (as salt: hydrochloride) [compound 69, 2-(5,7-difluoro-1H-indol-3-yl)-N-ethyl-N-methylethan-1-amine]",152.7 to 153.5
3,"CN(CCc1c[nH]c2ccc(F)cc12)C1CC1 (as salt: hydrochloride) [compound 160, N-(2-(5-fluoro-1H-indol-3-yl)ethyl)-N-methylcyclopropanamine]",218.8 to 219.3
4,"CCCN(CCc1c[nH]c2c(F)cccc12)C1CCC1 (as salt: hydrochloride) [compound 162, N-(2-(7-fluoro-1H-indol-3-yl)ethyl)-N-propylcyclobutanamine]",231.7 to 237.2
5,"CCCN(CC)CCc1c[nH]c2c(F)c(F)c(F)cc12 (as salt: hydrochloride) [compound 165, N-ethyl-N-[2-(5,6,7-trifluoro-1H-indol-3-yl)ethyl]propan-1-amine]",188 to 188.8
6,"C=CCN(CCC)CCc1c[nH]c2ccc(F)cc12 (as salt: salt) [compound 35, N-(2-(5-fluoro-1H-indol-3-yl)ethyl)-N-propylprop-2-en-1-amine]",175.1 to 177.2
7,"CCN(CCc1c[nH]c2ccc(F)cc12)C(C)C [Example 1, N-ethyl-N-(2-(5-fluoro-1H-indol-3-yl)ethyl)propan-2-amine]",77.1 to 78.1
8,"CN1CCC(c2c[nH]c3ccc(F)cc23)C1 (centres unmarked) [compound 15, 5-fluoro-3-(1-methylpyrrolidin-3-yl)-1H-indole]",122.8 to 125.1
9,"CCCN(CC)CC(=O)c1c[nH]c2ccc(F)cc12 [compound 24, 2-(ethyl(propyl)amino)-1-(5-fluoro-1H-indol-3-yl)ethan-1-one]",203.4 to 205.6
10,"CN1CC(c2c[nH]c3ccc(F)cc23)C1 [compound 29, 5-fluoro-3-(1-methylazetidin-3-yl)-1H-indole]",119 to 122.8
11,"CN(CCc1c[nH]c2ccc(F)cc12)C1CCC1 [compound 51, N-(2-(5-fluoro-1H-indol-3-yl)ethyl)-N-methylcyclobutanamine]",219.4 to 219.7
12,"CCN(C)CCc1c[nH]c2c(F)c(F)c(F)cc12 [compound 164, N-ethyl-N-methyl-2-(5,6,7-trifluoro-1H-indol-3-yl)ethan-1-amine]",212.1 to 212.5
13,"CC(C)N(CCc1c[nH]c2ccc(F)cc12)C1CC1 [compound 168, N-(2-(5-fluoro-1H-indol-3-yl)ethyl)-N-isopropylcyclopropanamine]",196.4 to 196.8
